Reference: patent publication US20250090489A1, “CATIONIC POLYMERIC NANOCARRIERS INHIBIT CHEMOTHERAPY-INDUCED CANCER METASTASIS AND COGNITIVE IMPAIRMENT” (The Trustees of Columbia University in the City of New York, priority 2022, published 2025)

Key:
[1] = Balb/c mice; compared to saline control
Description: In order to detect if mice experienced any behavioral changes under treatments, open field tests and pain sensitivity behavioral tests were performed.

[2] = test system: MDA-MB-231 human breast tumor with lung metastasis; conditions: NSG mouse
Excerpt: The anticancer efficacy of the nanoparticles has been evaluated in a NSG mouse model bearing MDA-MB-231 human breast tumor with lung metastasis. […] A thorough characterization of lung metastasis has been performed with a combination of IVIS imaging, H&E staining, and machine learning.

In the case of `COc1cccc2c1C(=O)c1c(O)c3c(c(O)c1C2=O)C[C@@](O)(C(=O)CO)C[C@@H]3O[C@H]1C[C@H](N)[C@H](O)[C@H](C)O1` [doxorubicin], the “distance traveled in open field test” value [1] is reported as “significant attenuation in the distance”.

With `CC(=O)O[C@H]1C(=O)[C@@]2(C)[C@H]([C@H](OC(=O)c3ccccc3)[C@]3(O)C[C@H](OC(=O)[C@H](O)[C@@H](NC(=O)c4ccccc4)c4ccccc4)C(C)=C1C3(C)C)[C@]1(OC(C)=O)CO[C@@H]1C[C@@H]2O` [paclitaxel free drug, paclitaxel] the lung metastasis ([2]; MDA-MB-231, IVIS imaging, H&E staining, machine learning) was “shows no therapeutic effect to metastasis, and even induce more metastasis” and the “primary tumor inhibition efficacy” value ([2]; MDA-MB-231 tumor) was “inhibits primary tumor”.
